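48-hour exposure; five concentrations; linearly interpolated endpoints. The concentration for 50% growth inhibition is given as GI50.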 The source made the active and inactive calls. Cut-off read from the data, not from the text of the source: active = GI50 up to about 1.1 µM and inactive = higher.
Legend:
Test in all cases: NCI-60 cell line screen, 48 h
SK-MEL-5 = test system: SK-MEL-5
SR = test system: SR
UACC-257 = test system: UACC-257
U-251 = test system: U-251
TK-10 = test system: TK-10
KM12 = test system: KM12
MOLT-4 = test system: MOLT-4
CCRF-CEM = test system: CCRF-CEM
HT-29 = test system: HT-29
SF-295 = test system: SF-295
HCT-116 = test system: HCT-116
HCC 2998 = test system: HCC 2998
HCT-15 = test system: HCT-15
A498 = test system: A498
SN12C = test system: SN12C
NCI-H23 = test system: NCI-H23
BT-549 = test system: BT-549
MCF7 = test system: MCF7
MDA-N = test system: MDA-N
MDA-MB-231 = test system: MDA-MB-231

Measured: GI50

Cc1ccc(-c2cc(-c3ccccc3)c(C#N)c(=O)[nH]2)cc1
> 100 µM: HCT-15
inactive: SK-MEL-5 > 100 µM | SR > 100 µM | UACC-257 > 100 µM | U-251 > 100 µM | TK-10 > 100 µM | KM12 > 100 µM | MOLT-4 > 100 µM | CCRF-CEM > 100 µM | HT-29 > 100 µM | SF-295 > 100 µM | HCT-116 > 100 µM | HCC 2998 > 100 µM | A498 > 100 µM | SN12C > 100 µM | NCI-H23 > 100 µM

O=C1CCCC2=C1CC1=C(CCCC1=O)N2c1ccc([N+](=O)[O-])cc1
> 100 µM: HCT-15
inactive: SK-MEL-5 > 100 µM | SR > 100 µM | U-251 > 100 µM | BT-549 > 100 µM | TK-10 > 100 µM | KM12 > 100 µM | MOLT-4 > 100 µM | CCRF-CEM > 100 µM | HT-29 > 100 µM | HCC 2998 > 100 µM | A498 > 100 µM | SN12C > 100 µM | NCI-H23 > 100 µM | MCF7 > 100 µM

Clc1c(Cl)c(Cl)c2c(nnn2C2CCCO2)c1Cl (stereo unspecified)
28.4 µM: HCT-15
inactive: SK-MEL-5 40.1 µM | SR 32.9 µM | UACC-257 35.6 µM | U-251 33.8 µM | TK-10 65.3 µM | MDA-N 27.7 µM | MDA-MB-231 43.5 µM | MOLT-4 23.2 µM | CCRF-CEM 26.4 µM | HT-29 33.6 µM | SF-295 36.9 µM | HCT-116 39.1 µM | HCC 2998 29.8 µM | A498 27.5 µM | SN12C 40.7 µM | NCI-H23 19.6 µM | MCF7 33.9 µM

CC(C)c1cccc(=O)c(O)c1
active: SR 0.959 µM | U-251 0.411 µM | MOLT-4 1.02 µM | CCRF-CEM 0.845 µM
1.54 µM: HCT-15
inactive: SK-MEL-5 2.1 µM | UACC-257 1.66 µM | TK-10 1.25 µM | MDA-N 2.18 µM | KM12 8.34 µM | HT-29 3.07 µM | SF-295 3.39 µM | HCT-116 1.72 µM | HCC 2998 9.44 µM | A498 14.6 µM | SN12C 5.51 µM | NCI-H23 2.53 µM

CO/N=C(/C)c1cccc(Nc2nc3ccccc3c3[nH]c4ccccc4c23)c1
5.92 µM: HCT-15
inactive: SK-MEL-5 5.62 µM | SR 5.86 µM | UACC-257 13.3 µM | U-251 13.5 µM | MDA-N 8.3 µM | KM12 3.99 µM | MDA-MB-231 12.1 µM | MOLT-4 3.96 µM | HT-29 2.49 µM | SF-295 3.5 µM | HCT-116 3.16 µM | SN12C 11.5 µM | NCI-H23 10.3 µM | MCF7 5.16 µM

O=S(=O)(O)c1ccccc1/N=N\c1ccc(/N=N/c2c(O)ccc3ccccc23)c(S(=O)(=O)O)c1
inactive: SK-MEL-5 > 100 µM | UACC-257 > 100 µM | U-251 > 100 µM | BT-549 > 100 µM | TK-10 > 100 µM | KM12 > 100 µM | MDA-MB-231 > 100 µM | MOLT-4 > 100 µM | CCRF-CEM 83.6 µM | HT-29 > 100 µM | SF-295 > 100 µM | HCT-116 > 100 µM | SN12C > 100 µM | NCI-H23 > 100 µM
> 100 µM: HCT-15

COc1ccc(C(=O)C(C(=O)CCC(=O)Nc2cccc(Cl)c2)c2ccc(OC)cc2)cc1 (stereo unspecified)
> 100 µM: HCT-15
inactive: SK-MEL-5 > 100 µM | SR > 100 µM | UACC-257 > 100 µM | U-251 > 100 µM | TK-10 > 100 µM | KM12 > 100 µM | MOLT-4 > 100 µM | CCRF-CEM > 100 µM | HT-29 > 100 µM | SF-295 > 100 µM | HCT-116 > 100 µM | HCC 2998 > 100 µM | A498 > 100 µM | SN12C > 100 µM | NCI-H23 > 100 µM

O=NC1C(Cl)C2CC1C1C(Br)C(Br)CC21 (stereo unspecified)
> 100 µM: HCT-15
inactive: SK-MEL-5 > 100 µM | SR 48.9 µM | U-251 > 100 µM | TK-10 > 100 µM | KM12 > 100 µM | MDA-MB-231 > 100 µM | MOLT-4 > 100 µM | CCRF-CEM 62.7 µM | HT-29 > 100 µM | SF-295 > 100 µM | HCT-116 > 100 µM | A498 > 100 µM | SN12C > 100 µM | NCI-H23 > 100 µM | MCF7 > 100 µM

CNC1=Nc2ccccc2C(=S)N2CSC[C@@H]12
inactive: SK-MEL-5 > 100 µM | SR 7.55 µM | U-251 > 100 µM | TK-10 > 100 µM | KM12 > 100 µM | MDA-MB-231 > 100 µM | MOLT-4 > 100 µM | HT-29 > 100 µM | SF-295 > 100 µM | HCT-116 > 100 µM | HCC 2998 > 100 µM | A498 > 100 µM | SN12C > 100 µM | NCI-H23 > 100 µM | MCF7 > 100 µM
> 100 µM: HCT-15

Cc1ccc([N+](=O)[O-])cc1NC1=NCCO1
> 100 µM: HCT-15
inactive: SK-MEL-5 > 100 µM | SR 45.8 µM | UACC-257 > 100 µM | U-251 > 100 µM | TK-10 > 100 µM | MDA-N > 100 µM | KM12 > 100 µM | MDA-MB-231 > 100 µM | MOLT-4 > 100 µM | CCRF-CEM > 100 µM | HT-29 > 100 µM | SF-295 > 100 µM | HCT-116 > 100 µM | HCC 2998 > 100 µM | A498 > 100 µM | SN12C > 100 µM | NCI-H23 > 100 µM | MCF7 > 100 µM

CC(=O)O[C@@H]1[C@H](OC2CCCCC2(c2ccccc2)c2ccccc2)O[N+]([O-])=CC12CCCCC2 (stereo partly specified)
active: CCRF-CEM 0.17 µM
inactive: SK-MEL-5 15 µM | SR 32 µM | UACC-257 17.1 µM | U-251 17 µM | TK-10 16.7 µM | MDA-N 20.2 µM | KM12 17.2 µM | MDA-MB-231 15.4 µM | MOLT-4 52 µM | HT-29 18.6 µM | SF-295 15.7 µM | HCT-116 17.6 µM | HCC 2998 17.1 µM | A498 16.3 µM | SN12C 19.6 µM | NCI-H23 10.2 µM | MCF7 18.2 µM
16 µM: HCT-15

C=CCOC(=O)Cn1cnc2c(N)ncnc21
inactive: SK-MEL-5 > 100 µM | SR > 100 µM | UACC-257 > 100 µM | U-251 > 100 µM | TK-10 > 100 µM | MDA-N > 100 µM | KM12 > 100 µM | MDA-MB-231 > 100 µM | MOLT-4 > 100 µM | CCRF-CEM > 100 µM | HT-29 > 100 µM | SF-295 > 100 µM | HCT-116 > 100 µM | HCC 2998 > 100 µM | A498 > 100 µM | SN12C > 100 µM | NCI-H23 > 100 µM | MCF7 > 100 µM
> 100 µM: HCT-15

O=C1c2c(c3c4ccccc4n4c3c3c2c2ccccc2n3C/C=C\C4)C(=O)N1Cc1ccccc1
inactive: SK-MEL-5 > 100 µM | SR > 100 µM | UACC-257 > 100 µM | U-251 46.5 µM | TK-10 > 100 µM | KM12 > 100 µM | MOLT-4 > 100 µM | CCRF-CEM > 100 µM | HT-29 > 100 µM | SF-295 > 100 µM | HCT-116 > 100 µM | HCC 2998 > 100 µM | A498 > 100 µM | SN12C > 100 µM | NCI-H23 > 100 µM
> 100 µM: HCT-15

Cc1[nH]c2ccccc2c1C1Cc2ccccc2N1C(=O)/C=C\C(=O)O (stereo unspecified)
inactive: SK-MEL-5 22.6 µM | SR 29.6 µM | UACC-257 19 µM | U-251 29.5 µM | TK-10 45.8 µM | KM12 32.6 µM | MOLT-4 28.4 µM | CCRF-CEM 31 µM | HT-29 66.1 µM | SF-295 45.6 µM | HCT-116 47.1 µM | HCC 2998 45.6 µM | A498 32.1 µM | SN12C 29.3 µM | NCI-H23 56.4 µM
> 100 µM: HCT-15

COC12c3ccccc3-c3ccccc3C1[C@H]1C(=O)OC(=O)[C@H]12 (stereo partly specified)
> 10 µM: HCT-15
inactive: SK-MEL-5 > 10 µM | SR > 10 µM | UACC-257 > 10 µM | U-251 > 10 µM | TK-10 > 10 µM | MDA-N > 10 µM | KM12 > 10 µM | MDA-MB-231 > 10 µM | MOLT-4 > 10 µM | CCRF-CEM > 10 µM | HT-29 > 10 µM | SF-295 > 10 µM | HCC 2998 > 10 µM | A498 > 10 µM | SN12C > 10 µM | NCI-H23 > 10 µM | MCF7 > 10 µM

CC(=O)OC1CC2CC(=O)CC1N2C (stereo unspecified)
> 100 µM: HCT-15
inactive: SK-MEL-5 > 100 µM | SR > 100 µM | UACC-257 > 100 µM | U-251 > 100 µM | TK-10 > 100 µM | MDA-N > 100 µM | KM12 > 100 µM | MDA-MB-231 > 100 µM | MOLT-4 > 100 µM | CCRF-CEM > 100 µM | HT-29 > 100 µM | SF-295 > 100 µM | HCT-116 > 100 µM | HCC 2998 > 100 µM | A498 > 100 µM | SN12C > 100 µM | NCI-H23 > 100 µM | MCF7 > 100 µM

Nc1nc(O)c2nc(N)n(Cc3ccccc3)c2n1
inactive: SK-MEL-5 > 100 µM | SR > 100 µM | UACC-257 > 100 µM | U-251 > 100 µM | TK-10 > 100 µM | KM12 > 100 µM | MOLT-4 > 100 µM | CCRF-CEM > 100 µM | HT-29 > 100 µM | SF-295 > 100 µM | HCT-116 > 100 µM | HCC 2998 > 100 µM | A498 > 100 µM | SN12C > 100 µM | NCI-H23 > 100 µM
> 100 µM: HCT-15

Reference: ChEMBL document CHEMBL1201862, “PubChem BioAssay data set” (2004)
